Experimental data reported in DBAASP.
Converted amounts (≈) assume the structure as drawn.

Columns and labels:
Experiment in all cases: ≥ marks a high value that may be exact or a test limit, other limits are often not marked, values filed in µg/mL are converted to µM
[1] = system: Pseudomonas aeruginosa PAO1 H103
[2] = system: Klebsiella pneumoniae ESBL 63575
[3] = system: Pseudomonas aeruginosa 9
[4] = system: Escherichia coli ESBL 63103
[5] = system: Klebsiella pneumoniae ESBL 61962
[6] = system: Pseudomonas aeruginosa H1027
[7] = system: Enterococcus faecium t62764
[8] = system: Pseudomonas aeruginosa H1030
[9] = system: Enterococcus faecium mic80
[10] = system: Stenotrophomonas maltophilia ATCC 13637
[11] = system: Enterococcus faecalis W61950
[12] = system: Enterococcus faecalis f43559
[13] = system: Enterococcus faecalis ATCC 29212
[14] = system: Pseudomonas aeruginosa LES400
[15] = system: Staphylococcus aureus C623
[16] = system: Escherichia coli ESBL 64771
[17] = system: Pseudomonas aeruginosa 213
[18] = system: Enterobacter cloacae 218R
[19] = system: Staphylococcus aureus ATCC 25923
[20] = system: Pseudomonas aeruginosa 198
[21] = system: Bacillus subtilis AB91021
[22] = system: Escherichia coli AB94012
[23] = system: Micrococcus luteus AB93113
[24] = system: Staphylococcus aureus P1386
[25] = system: Staphylococcus aureus AB94004
[26] = system: Pseudomonas aeruginosa AB93066
[27] = system: Bacillus thuringiensis AB92037
[28] = system: Staphylococcus epidermidis P1111
[29] = system: Staphylococcus aureus P1374
[30] = system: Staphylococcus epidermidis P1389
[31] = system: Staphylococcus aureus P1369
[32] = system: Escherichia coli ATCC 25922
[33] = system: Batrachochytrium dendrobatidis
[34] = system: Escherichia coli B
[35] = system: Escherichia coli ST131
[36] = system: Staphylococcus aureus
[37] = system: Bacillus subtilis 168
[38] = system: Pseudomonas aeruginosa
[39] = system: Klebsiella pneumoniae ST258
[40] = system: Staphylococcus aureus ATCC 6538P
[41] = system: Salmonella enterica subsp. enterica serovar Typhimurium ATCC 14028
[42] = system: Staphylococcus aureus TK784
[43] = system: Staphylococcus epidermidis ATCC 12228
[44] = system: Shigella dysenteriae ATCC 9752
[45] = system: Klebsiella pneumoniae ATCC 10031
[46] = system: Bacillus subtilis ATCC 6633
[47] = system: Pseudomonas aeruginosa ATCC 27853
[48] = system: Micrococcus luteus ATCC 10240

CC[C@H](C)[C@H](NC(=O)[C@H](C)N)C(=O)N[C@@H](CCCN=C(N)N)C(=O)N[C@@H](CCCN=C(N)N)C(=O)N[C@@H](Cc1c[nH]c2ccccc12)C(=O)N[C@@H](CCCN=C(N)N)C(=O)N[C@H](C(=O)N[C@@H](CCCN=C(N)N)C(=O)N[C@@H](CCCCN)C(=O)O)[C@@H](C)CC [AIRRWRIRK]
MIC [1]: ≥ 137 µM
MIC [2]: ≥ 137 µM
MIC [3]: ≥ 137 µM
MIC [4]: ≥ 68.6 µM
MIC [5]: ≥ 137 µM
MIC [6]: ≥ 137 µM
MIC [7]: 8.77 µM (≈ 11 µg/mL)
MIC [8]: ≥ 137 µM
MIC [9]: ≥ 68.6 µM
MIC [10]: ≥ 68.6 µM
MIC [11]: ≥ 137 µM
MIC [12]: ≥ 137 µM
MIC [13]: > 137 µM
MIC [14]: ≥ 137 µM
MIC [15]: ≥ 34.3 µM
MIC [16]: ≥ 68.6 µM
MIC [17]: ≥ 137 µM
MIC [18]: ≥ 68.6 µM
MIC [19]: 34.3 µM (≈ 43 µg/mL)
MIC [20]: ≥ 137 µM

CC[C@H](C)[C@H](NC(=O)[C@H](C)NC(=O)[C@H](CO)NC(=O)[C@@H](NC(=O)[C@H](CC(C)C)NC(=O)CNC(=O)CNC(=O)[C@@H](NC(=O)[C@H](CC(C)C)NC(=O)[C@H](CO)NC(=O)[C@@H]1CCCN1C(=O)[C@H](CC(C)C)NC(=O)[C@H](CC(C)C)NC(=O)[C@H](CO)NC(=O)[C@H](Cc1ccccc1)NC(=O)[C@@H](N)Cc1ccccc1)[C@@H](C)CC)C(C)C)C(=O)N[C@@H](CCCCN)C(N)=O [FFSLLPSLIGGLVSAIK]
MIC [21]: 28.4 µM (≈ 50 µg/mL)
MIC [22]: ≥ 56.7 µM
MIC [23]: 11.3 µM (≈ 20 µg/mL)
MIC [24]: 28.4 µM (≈ 50 µg/mL)
MIC [25]: 11.3 µM (≈ 20 µg/mL)
MIC [26]: ≥ 56.7 µM
MIC [27]: 28.4 µM (≈ 50 µg/mL)
MIC [28]: 11.3 µM (≈ 20 µg/mL)
MIC [29]: 28.4 µM (≈ 50 µg/mL)
MIC [30]: 28.4 µM (≈ 50 µg/mL)
MIC [31]: 28.4 µM (≈ 50 µg/mL)

CC[C@H](C)[C@H](NC(=O)CN)C(=O)N[C@@H](CCSC)C(=O)N[C@@H](CC(=O)O)C(=O)N[C@@H](CO)C(=O)N[C@H](C(=O)N[C@@H](CCCCN)C(=O)NCC(=O)N[C@@H](CC(C)C)C(=O)N[C@@H](C)C(=O)N[C@@H](CCCCN)C(=O)N[C@@H](CC(N)=O)C(=O)N[C@@H](CC(C)C)C(=O)N[C@@H](C)C(=O)NCC(=O)N[C@@H](CCCCN)C(=O)N[C@@H](CC(C)C)C(=O)N[C@@H](CC(C)C)C(=O)N[C@@H](CC(=O)O)C(=O)N[C@@H](CO)C(=O)N[C@@H](CC(C)C)C(=O)N[C@@H](CCCCN)C(=O)N[C@H]1CSSC[C@@H](C(=O)O)NC(=O)CNC(=O)[C@H]([C@@H](C)O)NC(=O)[C@H]([C@@H](C)CC)NC(=O)[C@H](CCCCN)NC1=O)C(C)C [GIMDSVKGLAKNLAGKLLDSLKCKITGC]
MIC [32]: 17 µM (≈ 48.9 µg/mL)
MIC [33]: 12.5 µM (≈ 35.9 µg/mL)

CC[C@H](C)[C@H](NC(=O)[C@H](CC(C)C)NC(=O)[C@H](CCCCN)NC(=O)CNC(=O)[C@H](CC(C)C)NC(=O)[C@@H](NC(=O)[C@H](CCCCN)NC(=O)[C@H](CCCCN)NC(=O)[C@H](Cc1c[nH]c2ccccc12)NC(=O)[C@H](CCCCN)NC(=O)CN)[C@@H](C)CC)C(=O)N[C@@H](CCCN=C(N)N)C(N)=O [GKWKKILGKLIR]
MIC [34]: 1.8 µM (≈ 2.59 µg/mL)
MIC [35]: 2 µM (≈ 2.88 µg/mL)
MIC [36]: 60 µM (≈ 86.3 µg/mL)
MIC [37]: 1.3 µM (≈ 1.87 µg/mL)
MIC [38]: 14.2 µM (≈ 20.4 µg/mL)
MIC [32]: 2 µM (≈ 2.88 µg/mL)
MIC [39]: ≥ 32 µM

CC(C)C[C@H](NC(=O)[C@H](CC(C)C)NC(=O)[C@H](CCCCN)NC(=O)[C@H](CCCCN)NC(=O)[C@H](CC(C)C)NC(=O)[C@H](Cc1c[nH]c2ccccc12)NC(=O)[C@H](CCCCN)NC(=O)[C@H](CC(C)C)NC(=O)[C@@H](N)CC(C)C)C(=O)N[C@@H](CCCCN)C(=O)N[C@@H](CCCCN)C(N)=O [LLKWLKKLLKK]
MIC [40]: 1.42 µM (≈ 2 µg/mL)
MIC [41]: 2.84 µM (≈ 4 µg/mL)
MIC [42]: 11.3 µM (≈ 16 µg/mL)
MIC [43]: 1.42 µM (≈ 2 µg/mL)
MIC [44]: 1.42 µM (≈ 2 µg/mL)
MIC [32]: 2.84 µM (≈ 4 µg/mL)
MIC [45]: 2.84 µM (≈ 4 µg/mL)
MIC [46]: 1.42 µM (≈ 2 µg/mL)
MIC [47]: 2.84 µM (≈ 4 µg/mL)
MIC [48]: 2.84 µM (≈ 4 µg/mL)
